The values below come from patent US9670227B2, “Thienopyrimidine derivatives, a process for their preparation and pharmaceutical compositions containing them” (LES LABORATOIRES SERVIER, priority 2013, dated 2017).

The target of one assay is Mcl-1 protein (UniProtKB primary accession number: Q07820) (Homo sapiens, UniProt Q07820). The experiment in a line: Inhibition of Mcl-1 by fluorescence polarisation, Method 1. The class given is binding. The following applies: read-out: IC50 (M) Mcl-1 FP. The method in brief: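 Fluorescence polarisation competition with an 11-point compound dilution series (final DMSO 5%). Mcl-1 protein at 5 nM and fluorescein-labelled ligand at 1 nM (final) in 10 mM HEPES, 150 mM NaCl, 0.05% Tween 20, pH 7.4.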
Chain of Mcl-1 protein (Q07820 whole entry): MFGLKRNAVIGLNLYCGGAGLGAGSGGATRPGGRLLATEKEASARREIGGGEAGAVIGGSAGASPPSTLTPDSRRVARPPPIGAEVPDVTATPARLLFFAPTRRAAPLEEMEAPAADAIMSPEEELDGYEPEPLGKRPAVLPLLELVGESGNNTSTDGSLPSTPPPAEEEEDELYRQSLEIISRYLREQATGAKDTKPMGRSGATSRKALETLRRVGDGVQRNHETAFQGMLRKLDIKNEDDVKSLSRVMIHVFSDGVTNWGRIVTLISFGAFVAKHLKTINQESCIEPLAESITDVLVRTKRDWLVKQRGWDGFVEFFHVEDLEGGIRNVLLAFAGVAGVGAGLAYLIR

Assay [1] concerns H929 multiple myeloma tumour line. The experiment in a line: In vitro cytotoxicity, Microculture Tetrazolium Assay. The class given is cell-based. The following applies: Homo sapiens, NCI-H929, 48 h, H929 cells, 48 hours exposure, MTT; read-out: IC50 (μM) MTT H929. The procedure: The cytotoxicity studies were carried out on the H929 multiple myeloma tumour line.
The cells are distributed onto microplates and exposed to the test compounds for 48 hours.

The mark [2] stands for this setting: fluorescence polarisation, Method 1, or Method 2.
The mark [3] stands for this setting: fluorescence polarisation test, Method 2 values are underlined in the patent (underlining not visible here).

Like-named read-outs stand apart in the source and are kept apart here.

One may read the IC50 as the concentration needed to halve the response being measured. For `Cc1csc(-c2sc3ncnc(OC(Cc4ccccc4)C(=O)O)c3c2-c2ccc(OCCN3CCN(C)CC3)c(Cl)c2C)c1` [Example 495, (2R)-2-{[(5Sa)-5-{3-chloro-2-methyl-4-[2-(4-methylpiperazin-1-yl)ethoxy]phenyl}-6-(4-methylthiophen-2-yl)thieno[2,3-d]pyrimidin-4-yl]oxy}-3-phenylpropanoic acid], the IC50 on Mcl-1 protein (setting [2]) turned out to be 3.6e-08 M; in assay [1], 1.19 µM.
Taken in the same sequence, the figures for `COc1ccccc1CC(Oc1ncnc2sc(-c3cccc([N+](=O)[O-])c3)c(-c3ccc(OCCN4CCN(C)CC4)c(Cl)c3C)c12)C(=O)O` [Example 545, (2R)-2-{[(5Sa)-5-{3-chloro-2-methyl-4-[2-(4-methylpiperazin-1-yl)ethoxy]phenyl}-6-(3-nitrophenyl)thieno[2,3-d]pyrimidin-4-yl]oxy}-3-(2-methoxyphenyl)propanoic acid] were 3.9e-08 M and 1.1 µM.
Consider `CNC(=O)COc1ccccc1CC(Oc1ncnc2sc(-c3ccco3)c(-c3ccc(OCCN4CCN(C)CC4)c(Cl)c3C)c12)C(=O)O` [Example 218, (2R)-2-{[(5Sa)-5-{3-chloro-2-methyl-4-[2-(4-methylpiperazin-1-yl)ethoxy]phenyl}-6-(furan-2-yl)thieno[2,3-d]pyrimidin-4-yl]oxy}-3-{2-[2-(methylamino)-2-oxoethoxy]phenyl}propanoic acid], for which the IC50 on Mcl-1 protein (setting [3]) stood at 6.5e-09 M; in assay [1], 0.805 µM.
As for `CCN1CCN(CCOc2ccc(-c3c(-c4ccco4)sc4ncnc(OC(Cc5ccccc5OCCOC)C(=O)O)c34)c(C)c2Cl)CC1` [Example 669, (2R)-2-{[(5Sa)-5-{3-chloro-4-[2-(4-ethylpiperazin-1-yl)ethoxy]-2-methylphenyl}-6-(furan-2-yl)thieno[2,3-d]pyrimidin-4-yl]oxy}-3-[2-(2-methoxyethoxy)phenyl]propanoic acid], the IC50 came out at 4.9e-09 M on Mcl-1 protein (setting [2]) and 0.108 µM in assay [1].
Regarding `CCN(C)CCOc1ccc(-c2c(-c3ccc(F)cc3)sc3ncnc(OC(Cc4ccccc4OCc4ccnc(-c5ccccc5F)n4)C(=O)O)c23)c(C)c1Cl` [Example 747, (2R)-2-{[(5Sa)-5-(3-chloro-4-{2-[ethyl(methyl)amino]ethoxy}-2-methylphenyl)-6-(4-fluorophenyl)thieno[2,3-d]pyrimidin-4-yl]oxy}-3-(2-{[2-(2-fluorophenyl)pyrimidin-4-yl]methoxy}phenyl)propanoic acid], the results for the IC50 (at Mcl-1 protein (setting [2]); in assay [1]) were 3.6e-09 M and 0.0263 µM, respectively.
The corresponding values for `CCc1sc2ncnc(OC(Cc3ccccc3)C(=O)O)c2c1-c1cc2nc(CN3CCN(C)CC3)oc2c(Cl)c1C` [Example 445, (2R)-2-[((5Sa)-5-{7-chloro-6-methyl-2-[(4-methylpiperazin-1-yl)methyl]-1,3-benzoxazol-5-yl}-6-ethylthieno[2,3-d]pyrimidin-4-yl)oxy]-3-phenylpropanoic acid] are 1.3e-07 M and 21 µM.
Regarding `Cc1cnc(COc2ccccc2CC(Oc2ncnc3sc(-c4ccco4)c(-c4ccc(OCCN5CCN(C)CC5)c(Cl)c4C)c23)C(=O)O)cn1` [Example 268, (2R)-2-{[(5Sa)-5-{3-chloro-2-methyl-4-[2-(4-methylpiperazin-1-yl)ethoxy]phenyl}-6-(furan-2-yl)thieno[2,3-d]pyrimidin-4-yl]oxy}-3-{2-[(5-methylpyrazin-2-yl)methoxy]phenyl}propanoic acid], the IC50 on Mcl-1 protein (setting [3]) was determined as 8.2e-09 M; in assay [1], 0.086 µM.
With `COc1ccccc1CC(Oc1ncnc2sc(C(C)(F)F)c(-c3ccc(OCCN4CCN(C)CC4)c(Cl)c3C)c12)C(=O)O` [Example 576, (2R)-2-{[(5Sa)-5-{3-chloro-2-methyl-4-[2-(4-methylpiperazin-1-yl)ethoxy]phenyl}-6-(1,1-difluoroethyl)thieno[2,3-d]pyrimidin-4-yl]oxy}-3-(2-methoxyphenyl)propanoic acid], the IC50 on Mcl-1 protein (setting [2]) was found to be 6.2e-08 M; in assay [1], 1.51 µM.
Taken in the same sequence, the figures for `Cc1c(-c2c(-c3cc4ccccc4s3)sc3ncnc(OC(Cc4ccccc4)C(=O)O)c23)ccc(OCCN2CCN(C)CC2)c1Cl` [Example 497, (2R)-2-{[6-(1-benzothiophen-2-yl)-(5Sa)-5-{3-chloro-2-methyl-4-[2-(4-methylpiperazin-1-yl)ethoxy]phenyl}thieno[2,3-d]pyrimidin-4-yl]oxy}-3-phenylpropanoic acid] were 9.1e-07 M and 5.95 µM.
Taken in the same sequence, the figures for `CCC#Cc1sc2ncnc(OC(Cc3ccccc3OCc3ccnn3CCCC)C(=O)O)c2c1-c1ccc(OCCN2CCN(C)CC2)c(Cl)c1C` [Example 612, (2R)-3-{2-[(1-butyl-1H-pyrazol-5-yl)methoxy]phenyl}-2-{[6-(but-1-yn-1-yl)-(5Sa)-5-{3-chloro-2-methyl-4-[2-(4-methylpiperazin-1-yl)ethoxy]phenyl}thieno[2,3-d]pyrimidin-4-yl]oxy}propanoic acid] were 3.5e-09 M and 0.02 µM.
For the molecule `COCCSc1nccc(COc2ccccc2CC(Oc2ncnc3sc(-c4ccc(F)cc4)c(-c4ccc(OCCN5CCN(C)CC5)c(Cl)c4C)c23)C(=O)O)n1` [Example 67, (2R)-2-{[(5Sa)-5-{3-chloro-2-methyl-4-[2-(4-methylpiperazin-1-yl)ethoxy]phenyl}-6-(4-fluorophenyl)thieno[2,3-d]pyrimidin-4-yl]oxy}-3-[2-({2-[(2-methoxyethyl)sulfanyl]pyrimidin-4-yl}methoxy)phenyl]propanoic acid], the 50% inhibitory concentration (IC50) at Mcl-1 protein (setting [3]) came to 3.4e-09 M; in assay [1] it was 0.03 µM.
The corresponding values for `Cc1cccc(COc2ccccc2CC(Oc2ncnc3sc(-c4ccco4)c(-c4ccc(OCCN5CCN(C)CC5)c(Cl)c4C)c23)C(=O)O)n1` [Example 235, (2R)-2-{[(5Sa)-5-{3-chloro-2-methyl-4-[2-(4-methylpiperazin-1-yl)ethoxy]phenyl}-6-(furan-2-yl)thieno[2,3-d]pyrimidin-4-yl]oxy}-3-{2-[(6-methylpyridin-2-yl)methoxy]phenyl}propanoic acid] are 5.1e-09 M and 0.098 µM.
As to `COc1ccccc1CC(Oc1ncnc2sc(-c3ccco3)c(-c3ccc(OCCN4CCN(CC(F)F)CC4)c(Cl)c3C)c12)C(=O)O` [Example 328, (2R)-2-{[(5Sa)-5-(3-chloro-4-{2-[4-(2,2-difluoroethyl)piperazin-1-yl]ethoxy}-2-methylphenyl)-6-(furan-2-yl)thieno[2,3-d]pyrimidin-4-yl]oxy}-3-(2-methoxyphenyl)propanoic acid], the IC50 at Mcl-1 protein (setting [3]) was 5e-09 M; in assay [1] it was 3.03 µM.
As for `C#Cc1sc2ncnc(OC(Cc3ccccc3OCc3ccnn3CCCC)C(=O)O)c2c1-c1ccc(OCCN2CCN(C)CC2)c(Cl)c1C` [Example 611, (2R)-3-{2-[(1-butyl-1H-pyrazol-5-yl)methoxy]phenyl}-2-[((5Sa)-5-{3-chloro-2-methyl-4-[2-(4-methylpiperazin-1-yl)ethoxy]phenyl}-6-ethynylthieno[2,3-d]pyrimidin-4-yl)oxy]propanoic acid], the IC50 came out at 3.9e-09 M on Mcl-1 protein (setting [2]) and 0.23 µM in assay [1].
For `Cc1c(-c2c(-c3ccco3)sc3ncnc(OC(Cc4ccccc4OCc4ccc(F)cn4)C(=O)O)c23)ccc(OCCN2CCN(C)CC2)c1Cl` [Example 232, (2R)-2-{[(5Sa)-5-{3-chloro-2-methyl-4-[2-(4-methylpiperazin-1-yl)ethoxy]phenyl}-6-(furan-2-yl)thieno[2,3-d]pyrimidin-4-yl]oxy}-3-{2-[(5-fluoropyridin-2-yl)methoxy]phenyl}propanoic acid], the IC50 was determined as 9e-09 M at Mcl-1 protein (setting [3]) and 0.046 µM in assay [1].
In the case of `Cc1c(-c2c(-c3ccc(Cl)o3)sc3ncnc(OC(Cc4ccccc4OCc4cocn4)C(=O)O)c23)ccc(OCCN2CCN(C)CC2)c1Cl` [Example 376, (2R)-2-{[6-(5-chlorofuran-2-yl)-(5Sa)-5-{3-chloro-2-methyl-4-[2-(4-methylpiperazin-1-yl)ethoxy]phenyl}thieno[2,3-d]pyrimidin-4-yl]oxy}-3-[2-(1,3-oxazol-4-ylmethoxy)phenyl]propanoic acid], the IC50 at Mcl-1 protein (setting [3]) amounted to 2e-09 M; in assay [1], 0.076 µM.
Taken in the same sequence, the figures for `Cc1c(-c2c(-c3ccco3)sc3ncnc(OC(Cc4ccccc4OCc4cccc(N5CCCC5)n4)C(=O)O)c23)ccc(OCCN2CCN(C)CC2)c1Cl` [Example 237, (2R)-2-{[(5Sa)-5-{3-chloro-2-methyl-4-[2-(4-methylpiperazin-1-yl)ethoxy]phenyl}-6-(furan-2-yl)thieno[2,3-d]pyrimidin-4-yl]oxy}-3-(2-{[6-(pyrrolidin-1-yl)pyridin-2-yl]methoxy}phenyl)propanoic acid] were 1.5e-08 M and 0.186 µM.
Taken in the same sequence, the figures for `Cc1c(-c2c(-c3ccco3)sc3ncnc(OC(Cc4ccccc4OCCC(F)(F)F)C(=O)O)c23)ccc(OCCN2CCN(C)CC2)c1Cl` [Example 288, (2R)-2-{[(5Sa)-5-{3-chloro-2-methyl-4-[2-(4-methylpiperazin-1-yl)ethoxy]phenyl}-6-(furan-2-yl)thieno[2,3-d]pyrimidin-4-yl]oxy}-3-[2-(3,3,3-trifluoropropoxy)phenyl]propanoic acid] were 1.2e-08 M and 0.086 µM.
Take `COc1nccc(COc2ccccc2CC(Oc2ncnc3sc(-c4cccc(F)c4F)c(-c4ccc(OCCN5CCN(C)CC5)c(Cl)c4C)c23)C(=O)O)n1` [Example 703, (2R)-2-{[(5Sa)-5-{3-chloro-2-methyl-4-[2-(4-methylpiperazin-1-yl)ethoxy]phenyl}-6-(2,3-difluorophenyl)thieno[2,3-d]pyrimidin-4-yl]oxy}-3-{2-[(2-methoxypyrimidin-4-yl)methoxy]phenyl}propanoic acid]: the IC50 was 9.3e-09 M on Mcl-1 protein (setting [2]) and 0.03 µM in assay [1].
